The target of this test is human TLR7 (Homo sapiens (Human), UniProt Q9NYK1). Briefly: Test for evaluating the inhibition of the activation of human TLR7 (SEAP reporter, TLR7/NF-κB/SEAPorter HEK293 cell). The class given is cell-based. The conditions noted are these: R-848 200 nmol/L; for inhibitory effect against TLR7 in the test for evaluating inhibition of the activation of TLR7: SEAP activity, result in words; for pIC50: SEAP reporter. The method in brief: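 HEK293 cells stably expressing full-length human TLR7 and an NF-κB-driven SEAP reporter. They were grown in DMEM with 10% FBS and blasticidin, and seeded at 5×10^4 cells/well overnight at 37° C, 5% CO2. Inhibition of TLR7 activation was read as SEAP output.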
Sequence of human TLR7 (Q9NYK1 27-1049): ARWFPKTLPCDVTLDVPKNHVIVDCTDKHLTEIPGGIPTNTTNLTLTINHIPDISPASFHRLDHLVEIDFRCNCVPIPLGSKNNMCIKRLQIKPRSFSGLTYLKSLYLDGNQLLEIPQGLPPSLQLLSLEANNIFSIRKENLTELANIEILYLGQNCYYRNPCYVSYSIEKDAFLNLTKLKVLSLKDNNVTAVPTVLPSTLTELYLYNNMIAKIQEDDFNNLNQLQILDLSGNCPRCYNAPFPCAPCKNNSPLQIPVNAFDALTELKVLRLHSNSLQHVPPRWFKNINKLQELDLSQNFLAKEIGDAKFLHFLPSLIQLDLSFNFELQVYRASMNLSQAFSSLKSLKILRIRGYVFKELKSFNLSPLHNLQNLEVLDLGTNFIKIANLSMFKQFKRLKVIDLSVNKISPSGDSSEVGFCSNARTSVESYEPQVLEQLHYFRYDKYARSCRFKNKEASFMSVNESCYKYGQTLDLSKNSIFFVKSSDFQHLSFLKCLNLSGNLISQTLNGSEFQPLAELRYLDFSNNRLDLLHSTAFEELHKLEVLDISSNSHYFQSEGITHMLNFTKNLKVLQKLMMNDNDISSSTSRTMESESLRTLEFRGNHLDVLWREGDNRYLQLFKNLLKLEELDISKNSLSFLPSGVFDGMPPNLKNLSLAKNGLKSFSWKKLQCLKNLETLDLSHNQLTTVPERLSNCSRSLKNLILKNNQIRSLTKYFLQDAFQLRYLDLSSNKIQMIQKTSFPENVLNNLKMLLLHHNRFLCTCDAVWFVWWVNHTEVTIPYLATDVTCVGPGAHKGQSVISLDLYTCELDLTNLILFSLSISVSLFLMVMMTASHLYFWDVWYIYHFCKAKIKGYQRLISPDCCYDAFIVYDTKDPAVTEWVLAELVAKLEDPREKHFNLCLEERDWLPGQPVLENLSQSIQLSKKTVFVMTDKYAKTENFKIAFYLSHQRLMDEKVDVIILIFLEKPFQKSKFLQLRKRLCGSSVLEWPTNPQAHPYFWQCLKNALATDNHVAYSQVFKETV

Results on 27 molecules are retold here after patent publication US10703755B2, “Substituted purine derivative” (SUMITOMO DAINIPPON PHARMA CO., LTD., priority 2016, dated 2020).

Molecules are shown by their SMILES. pIC50: −log10 of the molar value.

As usually defined, the pIC50 is the negative decadic logarithm of the IC50, by convention in mol/L. For the molecule `CCOc1nc(C)c2nc(-c3cncc(F)c3)n(Cc3cnn(CC4CCN(C)C4)c3)c2n1` (centres unmarked) [Example 278], the “inhibitory effect against TLR7 in the test for evaluating inhibition of the activation of TLR7” value (from here on “inhibitory effect against TLR7”) is “potent inhibitory effect against TLR7” and the pIC50 was 7.14.
Regarding `CCOc1nc(C)c2nc(-c3cncc(F)c3)n(Cc3cnn(CC4CCN(C)C4)c3)c2n1` (centres unmarked) [Example 279], the “inhibitory effect against TLR7” value is “potent inhibitory effect against TLR7” and the pIC50 was 7.40.
In the same order, the values of `COc1nc(C)c2nc(-c3cncc(F)c3)n(Cc3ccc(CN4C[C@@H]5C[C@H]4CN5C)cc3F)c2n1` [Example 280, 9-(2-fluoro-4-{[(1S,4S)-5-methyl-2,5-diazabicyclo[2.2.1]hept-2-yl]methyl}benzyl)-8-(5-fluoropyridin-3-yl)-2-methoxy-6-methyl-9H-purine] are “potent inhibitory effect against TLR7” and 8.52.
Molecule `CCOc1nc(C)c2nc(-c3cncc(F)c3)n(Cc3cnc(CC4CCN(C)CC4)cc3OC)c2n1` [Example 281] showed a pIC50 of 6.85.
Consider `COc1nc(C)c2nc(-c3cncc(F)c3)n(Cc3ccc(C4CCN(C)CC4)cc3F)c2n1` [Example 282, 9-[2-fluoro-4-(1-methylpiperidin-4-yl)benzyl]-8-(5-fluoropyridin-3-yl)-2-methoxy-6-methyl-9H-purine], for which the “inhibitory effect against TLR7” value is reported as “potent inhibitory effect against TLR7” and the pIC50 was 8.10.
In the same order, the values of `COc1nc(C)c2nc(-c3cncc(F)c3)n(Cc3ccc(CC4CCN(C)CC4)cc3F)c2n1` [Example 283] are “potent inhibitory effect against TLR7” and 7.68.
Consider `CCN1CCC(c2ccc(Cn3c(-c4cncc(F)c4)nc4c(C)nc(OC)nc43)c(F)c2)CC1` [Example 284, 9-[4-(1-ethylpiperidin-4-yl)-2-fluorobenzyl]-8-(5-fluoropyridin-3-yl)-2-methoxy-6-methyl-9H-purine], for which the “inhibitory effect against TLR7” value is “potent inhibitory effect against TLR7” and the pIC50 is 8.52.
In the same order, the values of `COc1nc(C)c2nc(-c3cncc(F)c3)n(Cc3ccc(O[C@H]4C[C@H]5CC[C@@H](C4)N5C)cc3F)c2n1` [Example 285, 9-(2-fluoro-4-{[(3-endo)-8-methyl-8-azabicyclo[3.2.1]oct-3-yl]oxy}benzyl)-8-(5-fluoropyridin-3-yl)-2-methoxy-6-methyl-9H-purine] are “potent inhibitory effect against TLR7” and 8.70.
`COc1nc(C)c2nc(-c3cncc(F)c3)n(Cc3ccc(OCC4CN(C)C4)cc3F)c2n1` [Example 286, 9-{2-fluoro-4-[(1-methylazetidin-3-yl)methoxy]benzyl}-8-(5-fluoropyridin-3-yl)-2-methoxy-6-methyl-9H-purine]: the “inhibitory effect against TLR7” value is on record as “potent inhibitory effect against TLR7” and the pIC50 is 7.59.
In the same order, the values of `CCN1CC(COc2ccc(Cn3c(-c4cncc(F)c4)nc4c(C)nc(OC)nc43)c(F)c2)C1` [Example 287] are “potent inhibitory effect against TLR7” and 7.54.
With `COc1nc(C)c2nc(-c3cncc(C#N)c3)n(Cc3ccc(C4CCN(C)CC4)cc3F)c2n1` [Example 288], the “inhibitory effect against TLR7” value is given as “potent inhibitory effect against TLR7” and the pIC50 is 7.21.
For the molecule `CCN1CCC(c2ccc(Cn3c(-c4cncc(C#N)c4)nc4c(C)nc(OC)nc43)c(F)c2)CC1` [Example 289, 5-{9-[4-(1-ethylpiperidin-4-yl)-2-fluorobenzyl]-2-methoxy-6-methyl-9H-purin-8-yl}pyridine-3-carbonitrile], the “inhibitory effect against TLR7” value is “potent inhibitory effect against TLR7” and the pIC50 was 7.52.
In the same order, the values of `COc1nc(C)c2nc(-c3cncc(F)c3)n(Cc3ccc(C4CCN(C)C4)cc3F)c2n1` (centres unmarked) [Example 290, 9-[2-fluoro-4-(1-methylpyrrolidin-3-yl)benzyl]-8-(5-fluoropyridin-3-yl)-2-methoxy-6-methyl-9H-purine] are “potent inhibitory effect against TLR7” and 7.66.
In the same order, the values of `CCN1CCC(c2ccc(Cn3c(-c4cncc(F)c4)nc4c(C)nc(OC)nc43)c(F)c2)C1` (centres unmarked) [Example 291, 9-[4-(1-ethylpyrrolidin-3-yl)-2-fluorobenzyl]-8-(5-fluoropyridin-3-yl)-2-methoxy-6-methyl-9H-purine] are “potent inhibitory effect against TLR7” and 7.77.
Take `COc1nc(C)c2nc(-c3cccnc3)n(Cc3ccc(C4CCN(C)CC4)cc3F)c2n1` [Example 292, 9-[2-fluoro-4-(1-methylpiperidin-4-yl)benzyl]-2-methoxy-6-methyl-8-(pyridin-3-yl)-9H-purine]: the “inhibitory effect against TLR7” value is “potent inhibitory effect against TLR7” and the pIC50 was 7.41.
Turning to `CCN1CCC(c2ccc(Cn3c(-c4cccnc4)nc4c(C)nc(OC)nc43)c(F)c2)CC1` [Example 293, 9-[4-(1-ethylpiperidin-4-yl)-2-fluorobenzyl]-2-methoxy-6-methyl-8-(pyridin-3-yl)-9H-purine], the “inhibitory effect against TLR7” value was “potent inhibitory effect against TLR7” and the negative-log IC50 (pIC50) is 7.74.
With `COc1nc(C)c2nc(-c3cncnc3)n(Cc3ccc(OC4CC5CCC(C4)N5C)cc3F)c2n1` (stereo not drawn) [Example 294, 9-(2-fluoro-4-{[(3-endo)-8-methyl-8-azabicyclo[3.2.1]oct-3-yl]oxy}benzyl)-2-methoxy-6-methyl-8-(pyrimidin-5-yl)-9H-purine], the “inhibitory effect against TLR7” value was “potent inhibitory effect against TLR7” and the pIC50 was 7.72.
In the same order, the values of `COc1nc(C)c2nc(-c3cncc(C#N)c3)n(Cc3ccc(OC4CC5CCC(C4)N5C)cc3F)c2n1` (stereo not drawn) [Example 295, 5-[9-(2-fluoro-4-{[(3-endo)-8-methyl-8-azabicyclo[3.2.1]oct-3-yl]oxy}benzyl)-2-methoxy-6-methyl-9H-purin-8-yl]pyridine-3-carbonitrile] are “potent inhibitory effect against TLR7” and 7.89.
Regarding `CCN1C2CCC1CC(Oc1ccc(Cn3c(-c4cncc(C#N)c4)nc4c(C)nc(OC)nc43)c(F)c1)C2` (stereo not drawn) [Example 296, 5-[9-(4-{[(3-endo)-8-ethyl-8-azabicyclo[3.2.1]oct-3-yl]oxy}-2-fluorobenzyl)-2-methoxy-6-methyl-9H-purin-8-yl]pyridine-3-carbonitrile], the “inhibitory effect against TLR7” value is recorded as “potent inhibitory effect against TLR7” and the pIC50 was 7.68.
In the case of `COc1nc(C)c2nc(-c3cccnc3)n(Cc3ccc(OC4CC5CCC(C4)N5C)cc3F)c2n1` (stereo not drawn) [Example 297, 9-(2-fluoro-4-{[(3-endo)-8-methyl-8-azabicyclo[3.2.1]oct-3-yl]oxy}benzyl)-2-methoxy-6-methyl-8-(pyridin-3-yl)-9H-purine], the “inhibitory effect against TLR7” value is “potent inhibitory effect against TLR7” and the pIC50 is 7.30.
In the same order, the values of `CCOc1nc(C)c2nc(-c3cncc(F)c3)n(Cc3cnn(CCN4CCN(C)CC4)c3)c2n1` [Example 300] are “potent inhibitory effect against TLR7” and 7.55.
In the same order, the values of `COc1cncc(-c2nc3c(C)nc(OC)nc3n2Cc2ccc(C3CN4CCC3CC4)cc2F)c1` (centres unmarked) [Example 302] are “potent inhibitory effect against TLR7” and 7.17.
Regarding `COc1nc(C)c2nc(-c3cccnc3)n(Cc3ccc(C4CN5CCC4CC5)cc3F)c2n1` (centres unmarked) [Example 303, 9-[4-(1-azabicyclo[2.2.2]oct-3-yl)-2-fluorobenzyl]-2-methoxy-6-methyl-8-(pyridin-3-yl)-9H-purine], the “inhibitory effect against TLR7” value is “potent inhibitory effect against TLR7” and the pIC50 is 8.15.
In the same order, the values of `COc1nc(C)c2nc(-c3cnccc3C)n(Cc3ccc(C4CN5CCC4CC5)cc3F)c2n1` (centres unmarked) [Example 304, 9-[4-(1-azabicyclo[2.2.2]oct-3-yl)-2-fluorobenzyl]-2-methoxy-6-methyl-8-(4-methylpyridin-3-yl)-9H-purine] are “potent inhibitory effect against TLR7” and 8.40.
In the same order, the values of `COc1nc(C)c2nc(-c3cncc(C)c3)n(Cc3ccc(C4CN5CCC4CC5)cc3F)c2n1` (centres unmarked) [Example 305, 9-[4-(1-azabicyclo[2.2.2]oct-3-yl)-2-fluorobenzyl]-2-methoxy-6-methyl-8-(5-methylpyridin-3-yl)-9H-purine] are “potent inhibitory effect against TLR7” and 8.30.
As for `COc1nc(C)c2nc(-c3ccc(C)nc3)n(Cc3ccc(C4CN5CCC4CC5)cc3F)c2n1` (centres unmarked) [Example 306], the “inhibitory effect against TLR7” value is listed as “potent inhibitory effect against TLR7” and the pIC50 is 7.40.
In the same order, the values of `CCOc1nc(C)c2nc(-c3cncc(F)c3)n(Cc3ccc(C4CN(C)CCO4)cc3F)c2n1` (centres unmarked) [Example 307] are “potent inhibitory effect against TLR7” and 7.24.
